Series [1] is described as follows: collision cross section (TIMS, N2 drift gas) of the primary ion; higher = larger gas-phase ion size.
A short description of series [2]: reversed-phase LC retention time (C18, 15 min MeOH gradient); higher = more hydrophobic / later elution.
The mark [3] stands for this setting: ionization mode: ESI+, ion species: [M+H]+.
The mark [4] stands for this setting: ionization mode: ESI-, ion species: [M-H]-.

Molecules are shown by their SMILES.

This is an account of results in the supplement of paper PMC12613149.

Take `COP(=O)(OC)OC` [Trimethylphosphate]: the collision cross section in series [1] (setting [3]) worked out at 116.51 Å². The “reversed-phase LC retention time” value in series [2] (setting [3]) turned out to be 6.15 min.
Taken in the same sequence, the figures for `O=P(Oc1ccccc1)(Oc1ccccc1)Oc1ccccc1` [Triphenylphosphate] were 172.48 Å² and 15.7 min.
In turn, `O=P(c1ccccc1)(c1ccccc1)c1ccccc1` [Triphenylphosphine oxide] returned a collision cross section in series [1] (setting [3]) of 163 Å². Further, in series [2] (setting [3]), the “reversed-phase LC retention time” value came to 13.9 min.
Regarding `CCCOP(=O)(OCCC)OCCC` [Tripropyl phosphate], the collision cross section in series [1] (setting [3]) amounted to 149 Å². Further, in series [2] (setting [3]), the “reversed-phase LC retention time” value is 14.2 min.
In series [1] (setting [3]), `CCCN(CCC)CCC` [Tripropylamine] displayed a collision cross section of 131.65 Å². Besides, in series [2] (setting [3]), the “reversed-phase LC retention time” value was 6.72 min.
For `CC(CCl)OP(=O)(OC(C)CCl)OC(C)CCl` (stereo not drawn) [Tris(1-chloro-2-propyl)phosphate], in series [1] (setting [3]), the collision cross section is given as 162.58 Å². Further, the “reversed-phase LC retention time” value in series [2] (setting [3]) turned out to be 14.3 min.
In series [1] (setting [3]), `O=P(OCC(Br)CBr)(OCC(Br)CBr)OCC(Br)CBr` (stereo not drawn) [Tris(2,3-dibromopropyl)phosphate] came in with a collision cross section of 195.61 Å². The “reversed-phase LC retention time” value in series [2] (setting [3]) was found to be 16 min.
Compound `O=P(OCCCl)(OCCCl)OCCCl` [Tris(2-chloroethyl)phosphate] gave a collision cross section in series [1] (setting [3]) of 150.93 Å². Moreover, in series [2] (setting [3]), the “reversed-phase LC retention time” value was found to be 11.7 min.
For the compound `CCCCC(CC)COP(=O)(OCC(CC)CCCC)OCC(CC)CCCC` (stereo not drawn) [Tris(2-ethylhexl)phosphate], in series [1] (setting [3]), the collision cross section worked out at 221.12 Å². Also, the “reversed-phase LC retention time” value in series [2] (setting [3]) came to 19.8 min.
For `CCCCC(CC)COC(=O)c1ccc(C(=O)OCC(CC)CCCC)c(C(=O)OCC(CC)CCCC)c1` (stereo not drawn) [Tris(2-ethylhexyl)trimellitate], the collision cross section in series [1] (setting [3]) was 258.93 Å². Also, in series [2] (setting [3]), the “reversed-phase LC retention time” value turned out to be 20.9 min.
As to `COc1nc(NC(=O)NS(=O)(=O)c2ccccc2C(F)(F)F)nc(C(F)(F)F)n1` [Tritosulfuron], the figures for the collision cross section in series [1] (setting [3]) and in series [1] (setting [4]) were 186.88 Å² and 184.96 Å², respectively. The “reversed-phase LC retention time” value worked out at 13.7 min in series [2] (setting [3]) and 11.8 min in series [2] (setting [4]).
Turning to `CC[C@H]1OC(=O)C[C@@H](O)[C@H](C)[C@@H](O[C@@H]2O[C@H](C)[C@@H](O[C@H]3C[C@@](C)(O)[C@@H](O)[C@H](C)O3)[C@H](N(C)C)[C@H]2O)[C@@H](CC=O)C[C@@H](C)C(=O)/C=C/C(C)=C/[C@@H]1CO[C@@H]1O[C@H](C)[C@@H](O)[C@@H](OC)[C@H]1OC` [Tylosin], the collision cross section is 282.55 Å² in series [1] (setting [3]) and 293.81 Å² in series [1] (setting [4]). For the same compound, the “reversed-phase LC retention time” value in series [2] (setting [3]) was 13 min; in series [2] (setting [4]), 15.6 min.
`CC(C)(c1ccccc1)c1cc(-n2nc3ccccc3n2)c(O)c(C(C)(C)c2ccccc2)c1` [UV-234] displayed a collision cross section in series [1] (setting [3]) of 219.51 Å². Besides, the “reversed-phase LC retention time” value in series [2] (setting [3]) is 19.7 min.
On to `CC(C)(C)c1cc(-n2nc3ccccc3n2)c(O)c(C(C)(C)C)c1` [UV-320], for which the collision cross section in series [1] (setting [3]) is 188.24 Å²; in series [1] (setting [4]) it was 193.86 Å². Besides, the “reversed-phase LC retention time” value in series [2] (setting [3]) came out at 19.7 min; in series [2] (setting [4]), 20.9 min.
In turn, `CC(C)(C)c1cc(-n2nc3ccc(Cl)cc3n2)c(O)c(C(C)(C)C)c1` [UV-327] came in with a collision cross section in series [1] (setting [4]) of 199.94 Å². Also, the “reversed-phase LC retention time” value in series [2] (setting [4]) was determined as 22 min.
For the compound `CCC(C)(C)c1cc(-n2nc3ccccc3n2)c(O)c(C(C)(C)CC)c1` [UV-328], the collision cross section in series [1] (setting [3]) is reported as 196.56 Å². Also, in series [2] (setting [3]), the “reversed-phase LC retention time” value came out at 20.1 min.
In series [1] (setting [3]), `CC(C)(C)CC(C)(C)c1cc(-n2nc3ccccc3n2)c(O)c(C(C)(C)c2ccccc2)c1` [UV-928] registered a collision cross section of 220.23 Å². Moreover, in series [2] (setting [3]), the “reversed-phase LC retention time” value was determined as 20.4 min.
Turning to `CC1(C)CC(N(C=O)CCCCCCN(C=O)C2CC(C)(C)NC(C)(C)C2)CC(C)(C)N1` [Univul-4050H], the collision cross section in series [1] (setting [3]) was 226.35 Å². Besides, the “reversed-phase LC retention time” value in series [2] (setting [3]) was determined as 7.4 min.
Consider `C[C@H]1[C@H](C)CC[C@]2(C(=O)O)CC[C@]3(C)C(=CC[C@@H]4[C@@]5(C)CC[C@H](O)C(C)(C)[C@@H]5CC[C@]43C)[C@H]12` [Ursolic acid], for which the collision cross section in series [1] (setting [3]) came to 208.26 Å²; in series [1] (setting [4]), 219.38 Å². For the same compound, the “reversed-phase LC retention time” value in series [2] (setting [3]) was determined as 18.4 min; in series [2] (setting [4]) it was 17.6 min.
The compound `CCCCCCOC(=O)c1ccccc1C(=O)c1ccc(N(CC)CC)cc1O` [Uvinul A Plus] gave a collision cross section in series [1] (setting [3]) of 209.29 Å². Further, the “reversed-phase LC retention time” value in series [2] (setting [3]) is 17.4 min.
